These results are taken from PubChem BioAssay AID248 (DTP/NCI, 2004).

“And” between values parts separate entries of the source, which are not always exact repeats. Equal values may be shown once. Toxic doses and inconclusive results are not listed.

The test system of the assay is L1210 leukemia ip in BDF1 mice, survival T/C. The experiment in a line: NCI In Vivo Anticancer Drug Screen. Data for tumor model L1210 Leukemia (intraperitoneal) in B6D2F1 (BDF1) mice. As to conditions: endpoint: mean survival time, higher = longer survival. The essentials:
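Survival endpoint. Drug-treated group vs vehicle group, expressed as T divided by C. Tumor passaged by transplantation.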

Where [1] appears, read: dose: 100.0 mg/kg/injection, schedule: Q04DX002 (ip), vehicle: Klucel (hydroxypropylcellulose) (HPC).
Setting [2] is: dose: 200.0 mg/kg/injection, schedule: Q04DX002 (ip), vehicle: Klucel (hydroxypropylcellulose) (HPC).
Where [3] appears, read: dose: 400.0 mg/kg/injection, schedule: Q04DX002 (ip), vehicle: Klucel (hydroxypropylcellulose) (HPC).
[4] abbreviates: dose: 200.0 mg/kg/injection, schedule: Q01DX001 (ip), vehicle: carboxymethylcellulose (CMC).
Where [5] appears, read: dose: 400.0 mg/kg/injection, schedule: Q01DX001 (ip), vehicle: carboxymethylcellulose (CMC).

`Cc1cccc(NC(=O)Nc2ccccc2)n1`: the T/C was 98 % of control under setting [1], 103 % of control under setting [2] and 103 % of control under setting [3].

On to `Cc1c2[n+](cc3ccccc13)C(C)CC(=O)N2` (stereo not drawn), for which the T/C was 95 % of control (dose: 18.75 mg/kg/injection, schedule: Q01DX009 (ip), vehicle: saline); 95 % of control (dose: 37.5 mg/kg/injection, schedule: Q01DX009 (ip), vehicle: saline); 97 % of control (dose: 37.5 mg/kg/injection, schedule: Q04DX003 (ip), vehicle: saline); 100 % of control (dose: 75.0 mg/kg/injection, schedule: Q01DX001 (ip), vehicle: saline); 94 % of control (dose: 75.0 mg/kg/injection, schedule: Q01DX009 (ip), vehicle: saline); 101 % of control (dose: 75.0 mg/kg/injection, schedule: Q04DX003 (ip), vehicle: saline). In addition, the T/C is, setting by setting: (dose: 150.0 mg/kg/injection, schedule: Q01DX001 (ip), vehicle: saline) 94 % of control; (dose: 150.0 mg/kg/injection, schedule: Q04DX003 (ip), vehicle: saline) 104 % of control.

As for `CCCCCCCCCCCCCCCCCC[N+]1(C)CCOCC1`, the T/C by setting is: (dose: 6.25 mg/kg/injection, schedule: Q01DX009 (ip), vehicle: Klucel (hydroxypropylcellulose) (HPC)) 94 % of control; (dose: 12.5 mg/kg/injection, schedule: Q01DX009 (ip), vehicle: Klucel (hydroxypropylcellulose) (HPC)) 100 % of control; (dose: 25.0 mg/kg/injection, schedule: Q01DX009 (ip), vehicle: Klucel (hydroxypropylcellulose) (HPC)) 97 % of control.

`CCCC/C(COC)=N\N=C(\CCOC)COC`: the T/C was 94 % of control under setting [4] and 94 % of control under setting [5].

With `Cc1ccc(Oc2ccc3c(c2)CN(C)CC3)cc1`, the T/C is 97 % of control under setting [1], 102 % of control under setting [2] and 91 % of control under setting [3].

Turning to `CC(OC(=O)c1ccc([N+](=O)[O-])cc1)C(C)(C)C` (stereo not drawn), the T/C under setting [1] was 109 % of control, the T/C under setting [2] is 123 % of control and the T/C under setting [3] is 113 % of control.

On to `CN(Cc1ccccc1)/N=N/c1nc[nH]c1C(N)=O`, for which the T/C reads like this: (dose: 4.0 mg/kg/injection, schedule: Q01DX009 (ip), vehicle: saline with Tween-80) 98 % of control; (dose: 8.0 mg/kg/injection, schedule: Q01DX009 (ip), vehicle: saline with Tween-80) 103 % of control; (dose: 22.0 mg/kg/injection, schedule: Q01DX009 (ip), vehicle: saline with Tween-80) 98 % of control; (dose: 25.0 mg/kg/injection, schedule: Q01DX009 (ip), vehicle: water) 122 % of control; (dose: 35.0 mg/kg/injection, schedule: Q01DX009 (ip), vehicle: saline with Tween-80) 117 % of control; (dose: 50.0 mg/kg/injection, schedule: Q01DX001 (ip), vehicle: water) 102 % of control. Further, the T/C runs as follows: (dose: 50.0 mg/kg/injection, schedule: Q01DX009 (ip), vehicle: saline) 124 % of control; (dose: 50.0 mg/kg/injection, schedule: Q04DX003 (ip), vehicle: water) 105 % of control; (dose: 100.0 mg/kg/injection, schedule: Q01DX001 (ip), vehicle: other) 104 % of control; (dose: 100.0 mg/kg/injection, schedule: Q01DX001 (ip), vehicle: water) 108 % of control; (dose: 100.0 mg/kg/injection, schedule: Q01DX009 (ip), vehicle: acetone) 181 % of control; (dose: 100.0 mg/kg/injection, schedule: Q01DX009 (ip), vehicle: water) 171 % of control and 175 % of control. The T/C reads like this: (dose: 100.0 mg/kg/injection, schedule: Q04DX003 (ip), vehicle: other) 102 % of control; (dose: 200.0 mg/kg/injection, schedule: Q01DX001 (ip), vehicle: other) 108 % of control; (dose: 200.0 mg/kg/injection, schedule: Q01DX001 (ip), vehicle: water) 113 % of control; (dose: 200.0 mg/kg/injection, schedule: Q01DX009 (ip), vehicle: acetone) 150 % of control; (dose: 200.0 mg/kg/injection, schedule: Q01DX009 (ip), vehicle: saline with Tween-80) 176 % of control; (dose: 200.0 mg/kg/injection, schedule: Q01DX009 (ip), vehicle: water) 106 % of control and 113 % of control. The T/C runs as follows: (dose: 200.0 mg/kg/injection, schedule: Q04DX003 (ip), vehicle: other) 122 % of control; (dose: 400.0 mg/kg/injection, schedule: Q01DX001 (ip), vehicle: other) 112 % of control; (dose: 400.0 mg/kg/injection, schedule: Q01DX009 (ip), vehicle: acetone) 87 % of control; (dose: 400.0 mg/kg/injection, schedule: Q04DX003 (ip), vehicle: other) 155 % of control.

For the compound `COc1ccc2nc3cc(Cl)ccc3c(Cl)c2c1`, the T/C by setting is: (dose: 50.0 mg/kg/injection, schedule: Q04DX003 (ip), vehicle: carboxymethylcellulose (CMC)) 87 % of control; (dose: 100.0 mg/kg/injection, schedule: Q01DX001 (ip), vehicle: carboxymethylcellulose (CMC)) 97 % of control; (dose: 100.0 mg/kg/injection, schedule: Q04DX003 (ip), vehicle: carboxymethylcellulose (CMC)) 92 % of control; under setting [4], 90 % of control; (dose: 200.0 mg/kg/injection, schedule: Q04DX003 (ip), vehicle: carboxymethylcellulose (CMC)) 91 % of control; under setting [5], 100 % of control.

`O=C(O)c1ccc(OCc2ccccc2)c(Br)c1`: the T/C (dose: 100.0 mg/kg/injection, schedule: Q01DX001 (ip), vehicle: saline with Tween-80) was 97 % of control; the T/C (dose: 200.0 mg/kg/injection, schedule: Q01DX001 (ip), vehicle: saline with Tween-80) was 104 % of control; the T/C (dose: 400.0 mg/kg/injection, schedule: Q01DX001 (ip), vehicle: saline with Tween-80) was 98 % of control.

For `CCCCCCCCCCCCCCCC(O)S(=O)(=O)O` (stereo not drawn), the T/C (dose: 100.0 mg/kg/injection, schedule: Q04DX003 (ip), vehicle: saline with Tween-80) was 92 % of control and the T/C (dose: 200.0 mg/kg/injection, schedule: Q04DX003 (ip), vehicle: saline with Tween-80) is 97 % of control.

For `NC(=S)N/N=C/c1ccccc1`, the T/C (dose: 75.0 mg/kg/injection, schedule: Q01DX001 (ip), vehicle: other) is 103 % of control and the T/C (dose: 150.0 mg/kg/injection, schedule: Q01DX001 (ip), vehicle: other) was 105 % of control.

With `Nc1[nH]c(=S)[nH]c(=S)c1N`, where the note is “dose: 125.0 mg/kg/injection, schedule: Q01DX Z (ip), vehicle: methylcellulose (MC)”, the T/C was 101 % of control.

On to `CC1S(=O)(=O)CCS1(=O)=O`, for which the T/C (dose: 75.0 mg/kg/injection, schedule: Q01DX001 (ip), vehicle: saline with Tween-80) was 100 % of control; the T/C (dose: 150.0 mg/kg/injection, schedule: Q01DX001 (ip), vehicle: saline with Tween-80) was 100 % of control; the T/C (dose: 300.0 mg/kg/injection, schedule: Q01DX001 (ip), vehicle: saline with Tween-80) is 103 % of control.

For `O=C1c2ccccc2C2(c3ccccc31)C(C(=O)c1ccccc1)C2C(=O)c1ccccc1` (stereo not drawn), the T/C (dose: 75.0 mg/kg/injection, schedule: Q01DX001 (ip), vehicle: carboxymethylcellulose (CMC)) is 94 % of control; the T/C (dose: 150.0 mg/kg/injection, schedule: Q01DX001 (ip), vehicle: carboxymethylcellulose (CMC)) is 96 % of control; the T/C (dose: 300.0 mg/kg/injection, schedule: Q01DX001 (ip), vehicle: carboxymethylcellulose (CMC)) was 91 % of control.

For the compound `Cc1cc(C)c(C2=C(Br)C(=O)C(c3c(C)cc(C)c(C)c3C)=C(Br)C2=O)c(C)c1C`, the T/C by setting is: (dose: 100.0 mg/kg/injection, schedule: Q01DX001 (ip), vehicle: Klucel (hydroxypropylcellulose) (HPC)) 98 % of control; (dose: 200.0 mg/kg/injection, schedule: Q01DX001 (ip), vehicle: Klucel (hydroxypropylcellulose) (HPC)) 103 % of control; (dose: 400.0 mg/kg/injection, schedule: Q01DX001 (ip), vehicle: Klucel (hydroxypropylcellulose) (HPC)) 98 % of control.

As for `CN1CCN(c2ccccc2N)CC1`, the T/C is 107 % of control (dose: 5.0 mg/kg/injection, schedule: Q04DX003 (ip), vehicle: saline); 96 % of control (dose: 10.0 mg/kg/injection, schedule: Q04DX003 (ip), vehicle: saline); 96 % of control (dose: 20.0 mg/kg/injection, schedule: Q04DX003 (ip), vehicle: saline).

For `O=C(CC(C[N+](=O)[O-])c1ccccc1)c1ccccc1` (stereo not drawn), the T/C was 96 % of control under setting [1], 100 % of control under setting [2] and 96 % of control under setting [3].
